Source: article PMC5148701 (Journal of medicinal chemistry, 2016)
“Also recorded” adds a separate entry of the source.

Key:
hD2L receptors = hD2L receptors (Homo sapiens, UniProt P14416); assay: D2R Gi/o-mediated cAMP inhibition assay; assay type: cell-based; details: normalized to maximum cAMP inhibition by quinpirole (100%); for cAMP Emax (%): HEK293T cells, GloSensor-22F; for Emax: HEK-293T, read-out: cAMP Emax (%), HEK293T cells, GloSensor-22F
D2L receptors = D2L receptors (Homo sapiens, UniProt P14416); assay: D2R β-arrestin-2 recruitment Tango assay; assay type: cell-based; details: HTLA, read-out: β-arrestin Emax (%)
Sequence of D2L receptors (P14416 whole entry): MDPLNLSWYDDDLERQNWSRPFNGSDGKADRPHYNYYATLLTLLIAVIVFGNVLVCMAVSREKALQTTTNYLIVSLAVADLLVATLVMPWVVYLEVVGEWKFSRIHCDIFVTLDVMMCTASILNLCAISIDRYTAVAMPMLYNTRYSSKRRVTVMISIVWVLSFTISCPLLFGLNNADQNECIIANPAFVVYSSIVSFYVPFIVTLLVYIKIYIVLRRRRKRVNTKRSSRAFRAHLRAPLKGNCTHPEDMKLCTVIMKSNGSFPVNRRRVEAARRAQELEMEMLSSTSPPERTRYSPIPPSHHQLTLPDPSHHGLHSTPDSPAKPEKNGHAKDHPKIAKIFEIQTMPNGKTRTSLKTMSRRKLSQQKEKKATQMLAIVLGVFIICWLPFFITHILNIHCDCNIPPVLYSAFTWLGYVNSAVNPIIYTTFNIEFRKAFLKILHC

mouse D2Long = mouse D2Long (Mus musculus, UniProt P61168); assay: BRET β-arrestin-2 recruitment assay with GRK2 co-expression; assay type: cell-based; details: up to 1 µM; GRK2 co-expressed
Sequence of mouse D2Long (P61168 whole entry): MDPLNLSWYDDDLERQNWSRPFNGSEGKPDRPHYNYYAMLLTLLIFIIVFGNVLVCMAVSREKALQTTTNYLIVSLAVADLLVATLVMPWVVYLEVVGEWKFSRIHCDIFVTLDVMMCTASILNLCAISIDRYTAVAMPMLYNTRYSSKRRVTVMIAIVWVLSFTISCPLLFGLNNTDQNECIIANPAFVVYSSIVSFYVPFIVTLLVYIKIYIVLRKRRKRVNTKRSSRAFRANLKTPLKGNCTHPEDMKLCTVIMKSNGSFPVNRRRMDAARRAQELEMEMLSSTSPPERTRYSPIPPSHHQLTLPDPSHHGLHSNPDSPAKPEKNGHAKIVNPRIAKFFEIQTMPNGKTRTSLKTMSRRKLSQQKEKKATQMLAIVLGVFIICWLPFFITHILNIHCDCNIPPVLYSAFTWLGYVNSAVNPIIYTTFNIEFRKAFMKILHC

D2R = D2R (Homo sapiens, UniProt P14416); assay: Radioligand binding, D2R
Sequence of D2R (P14416 whole entry): as the sequence (P14416 whole entry) above

D1R = D1R (Homo sapiens, UniProt P21728); assay: Radioligand binding, D1R
Sequence of D1R (P21728 whole entry): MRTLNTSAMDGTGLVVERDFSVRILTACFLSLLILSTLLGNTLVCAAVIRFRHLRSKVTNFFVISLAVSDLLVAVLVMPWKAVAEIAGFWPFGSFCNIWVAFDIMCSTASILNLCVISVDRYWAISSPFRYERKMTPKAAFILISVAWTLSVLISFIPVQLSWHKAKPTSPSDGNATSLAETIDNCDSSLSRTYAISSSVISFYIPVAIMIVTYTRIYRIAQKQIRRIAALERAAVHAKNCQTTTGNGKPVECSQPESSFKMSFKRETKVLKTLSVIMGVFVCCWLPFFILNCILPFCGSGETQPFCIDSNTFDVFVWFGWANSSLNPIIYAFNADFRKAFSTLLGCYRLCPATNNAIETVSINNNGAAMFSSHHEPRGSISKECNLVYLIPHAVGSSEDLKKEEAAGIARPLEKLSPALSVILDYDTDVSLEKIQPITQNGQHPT

D3R = D3R (Homo sapiens, UniProt P35462); assay: Radioligand binding, D3R
Sequence of D3R (P35462 whole entry): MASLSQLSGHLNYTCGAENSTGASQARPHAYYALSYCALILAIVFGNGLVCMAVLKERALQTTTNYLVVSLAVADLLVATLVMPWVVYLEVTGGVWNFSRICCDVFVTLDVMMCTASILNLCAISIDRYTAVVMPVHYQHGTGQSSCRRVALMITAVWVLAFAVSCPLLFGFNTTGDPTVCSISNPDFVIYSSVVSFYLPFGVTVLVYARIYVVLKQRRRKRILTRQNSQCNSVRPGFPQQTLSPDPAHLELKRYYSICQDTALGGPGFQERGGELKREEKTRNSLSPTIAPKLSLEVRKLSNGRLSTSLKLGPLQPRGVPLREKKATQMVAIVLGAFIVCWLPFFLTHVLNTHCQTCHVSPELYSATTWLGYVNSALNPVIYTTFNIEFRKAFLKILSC

D4R = biological target: T1, D4R (Homo sapiens, UniProt P21917); assay: Radioligand binding, D4R
T1 sequence (P21917 1-419): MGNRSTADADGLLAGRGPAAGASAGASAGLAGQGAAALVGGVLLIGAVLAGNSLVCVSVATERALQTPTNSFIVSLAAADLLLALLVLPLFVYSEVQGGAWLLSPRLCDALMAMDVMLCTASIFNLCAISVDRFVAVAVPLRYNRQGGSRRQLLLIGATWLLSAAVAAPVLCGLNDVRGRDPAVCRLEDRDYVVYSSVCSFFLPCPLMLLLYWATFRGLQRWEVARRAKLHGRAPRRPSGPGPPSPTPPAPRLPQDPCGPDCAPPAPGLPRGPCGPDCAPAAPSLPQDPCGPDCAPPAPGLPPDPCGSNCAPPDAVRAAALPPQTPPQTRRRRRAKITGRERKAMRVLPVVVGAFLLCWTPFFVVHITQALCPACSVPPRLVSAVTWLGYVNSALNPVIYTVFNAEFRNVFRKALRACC

5-HT1A = biological target: T2, 5-HT1A (Homo sapiens, UniProt P08908); assay: Radioligand binding, 5-HT1A; details: Binding affinity Ki (nM), 5-HT1A
T2 sequence (P08908 1-422): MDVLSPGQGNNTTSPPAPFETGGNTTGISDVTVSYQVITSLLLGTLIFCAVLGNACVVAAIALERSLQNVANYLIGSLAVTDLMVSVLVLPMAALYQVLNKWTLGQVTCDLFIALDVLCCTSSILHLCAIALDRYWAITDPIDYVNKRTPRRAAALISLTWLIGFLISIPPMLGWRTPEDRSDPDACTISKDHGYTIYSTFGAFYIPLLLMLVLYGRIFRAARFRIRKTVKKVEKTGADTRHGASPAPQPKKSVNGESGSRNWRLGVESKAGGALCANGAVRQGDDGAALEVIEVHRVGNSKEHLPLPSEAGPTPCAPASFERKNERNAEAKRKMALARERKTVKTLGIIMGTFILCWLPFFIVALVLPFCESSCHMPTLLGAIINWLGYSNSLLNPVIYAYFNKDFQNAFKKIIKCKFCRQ

5-HT1D = 5-HT1D (Homo sapiens, UniProt P28221); assay: Radioligand binding, 5-HT1D
Sequence of 5-HT1D (P28221 whole entry, species assumed): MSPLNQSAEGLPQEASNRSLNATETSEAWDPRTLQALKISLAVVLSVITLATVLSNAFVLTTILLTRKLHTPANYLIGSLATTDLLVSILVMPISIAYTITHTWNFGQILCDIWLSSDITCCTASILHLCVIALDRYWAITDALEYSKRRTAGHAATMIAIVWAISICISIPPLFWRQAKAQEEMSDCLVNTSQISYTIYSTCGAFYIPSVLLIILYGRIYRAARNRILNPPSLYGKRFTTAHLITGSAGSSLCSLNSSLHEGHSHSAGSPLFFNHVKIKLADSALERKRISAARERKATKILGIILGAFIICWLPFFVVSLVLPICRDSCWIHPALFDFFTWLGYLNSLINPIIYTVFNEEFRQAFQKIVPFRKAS

5-HT2A = 5-HT2A (Homo sapiens, UniProt P28223); assay: Radioligand binding, 5-HT2A
Sequence of 5-HT2A (P28223 whole entry, species assumed): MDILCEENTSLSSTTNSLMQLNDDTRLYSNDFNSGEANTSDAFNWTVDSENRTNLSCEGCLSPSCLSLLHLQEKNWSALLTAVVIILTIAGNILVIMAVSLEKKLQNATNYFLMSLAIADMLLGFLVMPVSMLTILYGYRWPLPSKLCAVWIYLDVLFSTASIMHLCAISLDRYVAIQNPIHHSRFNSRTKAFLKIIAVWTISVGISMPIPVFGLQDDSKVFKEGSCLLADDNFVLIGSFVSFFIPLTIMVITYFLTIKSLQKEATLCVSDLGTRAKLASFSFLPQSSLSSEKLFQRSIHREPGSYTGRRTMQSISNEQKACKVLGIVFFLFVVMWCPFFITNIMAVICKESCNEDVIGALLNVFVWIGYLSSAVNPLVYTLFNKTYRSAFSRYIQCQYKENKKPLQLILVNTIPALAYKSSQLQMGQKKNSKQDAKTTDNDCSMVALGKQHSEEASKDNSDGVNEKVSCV

5-HT2B = 5-HT2B (Homo sapiens, UniProt P41595); assay: Radioligand binding, 5-HT2B; details: Binding affinity Ki (nM), 5-HT2B
Sequence of 5-HT2B (P41595 whole entry, species assumed): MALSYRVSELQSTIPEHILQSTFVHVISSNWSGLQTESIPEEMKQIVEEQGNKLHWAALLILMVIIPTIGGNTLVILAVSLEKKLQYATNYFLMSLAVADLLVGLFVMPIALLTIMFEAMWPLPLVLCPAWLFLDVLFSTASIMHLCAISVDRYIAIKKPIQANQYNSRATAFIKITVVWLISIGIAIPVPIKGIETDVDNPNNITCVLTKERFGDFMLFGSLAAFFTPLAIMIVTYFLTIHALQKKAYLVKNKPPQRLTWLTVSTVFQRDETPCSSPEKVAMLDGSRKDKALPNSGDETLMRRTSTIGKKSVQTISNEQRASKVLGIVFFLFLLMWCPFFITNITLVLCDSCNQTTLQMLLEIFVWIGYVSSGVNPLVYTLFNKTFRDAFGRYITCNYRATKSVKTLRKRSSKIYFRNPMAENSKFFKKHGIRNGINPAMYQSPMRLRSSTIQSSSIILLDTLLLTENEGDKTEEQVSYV

5-HT3 = biological target: T3, 5-HT3 (Homo sapiens, UniProt P46098); assay: Radioligand binding, 5-HT3
T3 sequence (P46098 24-478): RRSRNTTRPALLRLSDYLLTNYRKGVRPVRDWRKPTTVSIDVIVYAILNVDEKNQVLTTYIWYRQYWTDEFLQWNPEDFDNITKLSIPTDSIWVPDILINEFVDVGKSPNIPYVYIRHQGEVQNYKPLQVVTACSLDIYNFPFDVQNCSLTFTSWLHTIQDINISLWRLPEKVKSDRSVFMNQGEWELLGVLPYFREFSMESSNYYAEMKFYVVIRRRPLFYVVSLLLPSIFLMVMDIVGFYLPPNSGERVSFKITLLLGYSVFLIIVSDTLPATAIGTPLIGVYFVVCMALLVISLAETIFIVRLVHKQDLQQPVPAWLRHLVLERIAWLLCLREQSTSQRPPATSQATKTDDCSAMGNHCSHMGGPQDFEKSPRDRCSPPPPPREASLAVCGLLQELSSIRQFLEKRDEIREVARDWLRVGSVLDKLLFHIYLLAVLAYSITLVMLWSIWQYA

5-HT5A = 5-HT5A (Homo sapiens, UniProt P47898); assay: Radioligand binding, 5-HT5A
Sequence of 5-HT5A (P47898 whole entry, species assumed): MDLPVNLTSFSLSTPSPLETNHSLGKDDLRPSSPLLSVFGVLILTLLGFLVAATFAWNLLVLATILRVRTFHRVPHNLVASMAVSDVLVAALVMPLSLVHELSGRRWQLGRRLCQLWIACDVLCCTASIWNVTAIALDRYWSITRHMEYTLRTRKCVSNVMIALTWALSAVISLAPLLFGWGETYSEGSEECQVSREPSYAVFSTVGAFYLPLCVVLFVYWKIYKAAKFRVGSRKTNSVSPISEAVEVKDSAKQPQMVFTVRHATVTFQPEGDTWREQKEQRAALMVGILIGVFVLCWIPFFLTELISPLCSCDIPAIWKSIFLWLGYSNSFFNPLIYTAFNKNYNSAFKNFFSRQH

D5R = D5R (Homo sapiens, UniProt P21918); assay: Radioligand binding, D5R
Sequence of D5R (P21918 whole entry): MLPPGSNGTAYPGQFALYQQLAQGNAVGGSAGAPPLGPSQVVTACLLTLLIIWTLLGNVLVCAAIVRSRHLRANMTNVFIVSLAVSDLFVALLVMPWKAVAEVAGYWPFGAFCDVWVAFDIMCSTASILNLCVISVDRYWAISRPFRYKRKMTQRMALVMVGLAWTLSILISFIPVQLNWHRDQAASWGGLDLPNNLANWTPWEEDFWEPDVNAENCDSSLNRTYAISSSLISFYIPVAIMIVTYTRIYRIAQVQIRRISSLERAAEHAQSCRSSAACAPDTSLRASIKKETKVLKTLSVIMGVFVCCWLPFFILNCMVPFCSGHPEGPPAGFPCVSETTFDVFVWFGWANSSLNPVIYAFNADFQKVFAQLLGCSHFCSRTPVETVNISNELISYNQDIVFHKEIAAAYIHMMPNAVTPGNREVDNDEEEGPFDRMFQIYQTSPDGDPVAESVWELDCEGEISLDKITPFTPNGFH

5-HT1B = 5-HT1B (Homo sapiens, UniProt P28222); assay: Radioligand binding, 5-HT1B
Sequence of 5-HT1B (P28222 whole entry, species assumed): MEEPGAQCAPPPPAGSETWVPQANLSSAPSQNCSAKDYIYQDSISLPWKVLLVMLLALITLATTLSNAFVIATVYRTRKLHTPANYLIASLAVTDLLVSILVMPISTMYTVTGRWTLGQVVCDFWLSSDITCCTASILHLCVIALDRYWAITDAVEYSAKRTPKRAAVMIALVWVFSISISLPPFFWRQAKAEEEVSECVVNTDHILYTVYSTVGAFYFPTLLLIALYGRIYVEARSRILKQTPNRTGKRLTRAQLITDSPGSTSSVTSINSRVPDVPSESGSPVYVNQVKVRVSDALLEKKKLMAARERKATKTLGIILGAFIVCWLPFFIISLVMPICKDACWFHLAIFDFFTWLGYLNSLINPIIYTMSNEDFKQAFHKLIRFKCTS

5-HT2C = biological target: T4, 5-HT2C (Homo sapiens, UniProt P28335); assay: Radioligand binding, 5-HT2C
T4 sequence (P28335 33-458): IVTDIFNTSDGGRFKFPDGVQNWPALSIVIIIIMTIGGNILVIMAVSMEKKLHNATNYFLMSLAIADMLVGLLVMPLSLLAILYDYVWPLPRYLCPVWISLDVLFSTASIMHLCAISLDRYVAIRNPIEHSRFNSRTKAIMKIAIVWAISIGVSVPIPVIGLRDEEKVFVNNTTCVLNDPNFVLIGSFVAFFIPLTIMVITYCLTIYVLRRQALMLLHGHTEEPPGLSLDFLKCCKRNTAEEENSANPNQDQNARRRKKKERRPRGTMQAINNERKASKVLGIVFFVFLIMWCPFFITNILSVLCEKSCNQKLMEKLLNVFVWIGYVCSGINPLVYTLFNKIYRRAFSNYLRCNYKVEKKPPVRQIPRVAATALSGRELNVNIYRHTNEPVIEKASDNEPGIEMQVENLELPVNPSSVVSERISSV

5-HT7 = 5-HT7 (Homo sapiens, UniProt P34969); assay: Radioligand binding, 5-HT7
Sequence of 5-HT7 (P34969 whole entry, species assumed): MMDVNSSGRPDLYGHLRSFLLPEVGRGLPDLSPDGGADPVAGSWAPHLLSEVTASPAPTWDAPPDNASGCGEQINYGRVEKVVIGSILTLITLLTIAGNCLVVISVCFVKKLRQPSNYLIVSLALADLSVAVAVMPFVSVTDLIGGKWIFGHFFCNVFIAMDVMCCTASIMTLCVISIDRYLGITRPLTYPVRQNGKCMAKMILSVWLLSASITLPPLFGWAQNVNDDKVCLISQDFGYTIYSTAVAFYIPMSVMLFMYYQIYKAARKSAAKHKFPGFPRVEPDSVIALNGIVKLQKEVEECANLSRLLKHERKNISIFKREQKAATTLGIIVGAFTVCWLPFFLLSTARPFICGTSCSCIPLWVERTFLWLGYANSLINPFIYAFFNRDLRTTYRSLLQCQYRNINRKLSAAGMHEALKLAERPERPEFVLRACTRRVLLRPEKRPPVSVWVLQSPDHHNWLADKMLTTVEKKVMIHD

H2-histamine receptor = H2-histamine receptor (Homo sapiens, UniProt P25021); assay: Radioligand binding, H2
human D2Rlong [1] = biological target: T5, human D2Rlong (Homo sapiens, UniProt P14416); assay: DiscoverX PathHunter D2R β-arrestin-2 recruitment assay; assay type: cell-based; details: D2R-expressing CHO cells; up to 10 µM; n=1, performed in duplicate
T5 sequence (P14416 whole entry): as the sequence (P14416 whole entry) above

human D2Rlong [2] = biological target: T5, human D2Rlong; assay: cell-based
5-HT6 = 5-HT6 (Homo sapiens, UniProt P50406); assay: Radioligand binding, 5-HT6

Sequence of hD2L receptors (P14416 whole entry): as above

Q: With CCc1nc2cc(OCCCCN3CCC(c4cccc(Cl)c4Cl)CC3)ccc2s1 [Compound 46, 5-(4-(4-(2,3-Dichlorophenyl)piperidin-1-yl)butoxy)-2-ethylbenzo[d]thiazole] as the molecule, how does the “cAMP Emax (%)” value (hD2L receptors) read?
A: 43%

Q: And the Emax (hD2L receptors)?
A: 40 to 50%

Q: What about the Emax (D2L receptors) of the same molecule?
A: < 20%

Q: What about the “β-arrestin-2 recruitment agonist activity in BRET assay” value (mouse D2Long) of the same molecule?
A: not active; also recorded: no β-arrestin recruitment

Q: And the Ki (D2R)?
A: 170 nM

Q: And the Ki (D1R)?
A: 1700 nM

Q: What about the Ki (D3R) of the same molecule?
A: 100 nM

Q: What about the Ki (D4R) of the same molecule?
A: 1800 nM

Q: And the Ki (5-HT1A)?
A: 100 nM

Q: And the Ki (5-HT1D)?
A: 820 nM

Q: What about the Ki (5-HT2A) of the same molecule?
A: 140 nM

Q: And the Ki (5-HT2B)?
A: 71 nM

Q: And the Ki (5-HT3)?
A: 1500 nM

Q: And the Ki (5-HT5A)?
A: 1600 nM

Q: With Cc1ccc2cccc(N3CCN(CCCCOc4ccc5sc(C(C)C)nc5c4)CC3)c2n1 [Compound 49, 2-Isopropyl-5-(4-(4-(2-methylquinolin-8-yl)piperazin-1-yl)butoxy)benzo[d]thiazole] as the molecule, how does the “cAMP Emax (%)” value (hD2L receptors) read?
A: 32%

Q: What about the Emax (hD2L receptors) of the same molecule?
A: 30 to 40%

Q: What about the Emax (D2L receptors) of the same molecule?
A: < 20%

Q: What about the “β-arrestin-2 recruitment agonist activity in BRET assay” value (mouse D2Long) of the same molecule?
A: not active; also recorded: no β-arrestin recruitment

Q: And the Ki (D2R)?
A: 45 nM

Q: What about the Ki (D1R) of the same molecule?
A: 2000 nM

Q: And the Ki (D3R)?
A: 64 nM

Q: And the Ki (D4R)?
A: 7100 nM

Q: And the Ki (D5R)?
A: 1500 nM

Q: And the Ki (5-HT1A)?
A: 14 nM

Q: What about the Ki (5-HT1B) of the same molecule?
A: 1600 nM

Q: And the Ki (5-HT1D)?
A: 94 nM

Q: What about the Ki (5-HT2A) of the same molecule?
A: 110 nM

Q: And the Ki (5-HT2C)?
A: 140 nM

Q: What about the Ki (5-HT5A) of the same molecule?
A: 1400 nM

Q: What about the Ki (5-HT7) of the same molecule?
A: 69 nM

Q: What about the Ki (H2-histamine receptor) of the same molecule?
A: 430 nM

Q: CC(C)c1nc2cc(OCCCCN3CCN(c4cccc5c4OCCO5)CC3)ccc2s1 [Compound 53, 5-(4-(4-(2,3-Dihydrobenzo[b][1,4]dioxin-5-yl)piperazin-1-yl)butoxy)-2-isopropylbenzo[d]thiazole] was tested. Which Emax (hD2L receptors) did it give?
A: 30 to 40%

Q: And the Emax (D2L receptors)?
A: < 20%

Q: And the “β-arrestin-2 recruitment agonist activity in BRET assay” value (mouse D2Long)?
A: not active; also recorded: no β-arrestin recruitment

Q: What about the “β-arrestin recruitment activity as measured by DiscoverX” value (human D2Rlong [1]) of the same molecule?
A: lack of β-arrestin-2 recruitment activity; also recorded: no activity

Q: And the EC50 (human D2Rlong [2])?
A: 4.6 nM

Q: What about the “Gαi1-Gγ2 dissociation BRET partial agonist activity relative to quinpirole” value (human D2Rlong [2]; HEK293T cells) of the same molecule?
A: 47%

Q: And the Ki (D2R)?
A: 30 nM

Q: And the Ki (D1R)?
A: 2000 nM

Q: What about the Ki (D3R) of the same molecule?
A: 31 nM

Q: What about the Ki (D4R) of the same molecule?
A: 77 nM

Q: And the Ki (D5R)?
A: 1100 nM

Q: What about the Ki (5-HT1A) of the same molecule?
A: 1.4 nM

Q: And the Ki (5-HT1B)?
A: 420 nM

Q: What about the Ki (5-HT1D) of the same molecule?
A: 100 nM

Q: What about the Ki (5-HT2A) of the same molecule?
A: 29 nM

Q: What about the Ki (5-HT3) of the same molecule?
A: 2600 nM

Q: And the Ki (5-HT7)?
A: 31 nM

Q: Which Emax (hD2L receptors) does the source give for CNc1nc2cc(OCCCCN3CCC(c4cccc(Cl)c4Cl)CC3)ccc2s1 [Compound 54, 5-(4-(4-(2,3-Dichlorophenyl)piperidin-1-yl)butoxy)-N-methylbenzo[d]thiazol-2-amine] here?
A: 40 to 50%

Q: And the “β-arrestin-2 recruitment agonist activity in BRET assay” value (mouse D2Long)?
A: not active; also recorded: no β-arrestin recruitment

Q: What about the Ki (D2R) of the same molecule?
A: 99 nM

Q: What about the Ki (D1R) of the same molecule?
A: 1100 nM

Q: And the Ki (D3R)?
A: 69 nM

Q: And the Ki (D4R)?
A: 430 nM

Q: What about the Ki (D5R) of the same molecule?
A: 1800 nM

Q: What about the Ki (5-HT1A) of the same molecule?
A: 66 nM

Q: What about the Ki (5-HT1B) of the same molecule?
A: 2600 nM

Q: And the Ki (5-HT1D)?
A: 410 nM

Q: What about the Ki (5-HT2A) of the same molecule?
A: 70 nM

Q: What about the Ki (5-HT2B) of the same molecule?
A: < 20 nM

Q: What about the Ki (5-HT6) of the same molecule?
A: 410 nM
